Measurements as given in patent US20240263159A1, “GENE EDITING IN PRIMARY IMMUNE CELLS USING CELL PENETRATING CRISPR-CAS SYSTEM” (THE TRUSTEES OF THE UNIVERSITY OF PENNSYLVANIA, priority 2021, published 2024).

Experiments:
[1] = test system: CD90.2; experiment: in vitro editing in mouse primary CD8 T cells, CD90.2 knockdown by flow cytometry; assay type: cell-based
[2] = test system: CD45.2; experiment: in vitro editing in mouse primary CD8 T cells, CD45.2 knockdown by flow cytometry; assay type: cell-based; conditions: CD45.2 sgRNA_1, 5 μM TAT-4×Myc NLS-Cas9, 75 μM dTAT-HA2, Day 4
Method: FIG. 3C: An example of flow plots showing the percentage of sgRNA+Cas9+ for Rosa and CD45.2.
FIG. 3D: Target genes are knocked down during Days 1-5 in vitro culture as measured by flow cytometry.
RN2-Cas9 cells were infected with retrovirus expressing sgRNA and mCherry, and CD45.2 expression level was measured by flow cytometry after 3 days of infection. Both sgRNAs targeting CD45.2 efficiently knocked down CD45.2 compared to sgRNAs targeting Rosa26 (FIG. 3A). It was next tested whether TAT-4×Myc Cas9 can edit the genome in mouse primary CD8 T cells. Briefly, on Day −2, primary CD8 T cells were isolated from 3-month-old mouse spleen and activated by CD3, […], and IL-2 for 24 hours. On Day −1, the activated cells were infected with retrovirus expressing sgRNA and mCherry for 24 hours. Cells were then treated with 5 μM TAT-4×Myc NLS-Cas9 (with GFP tag) and 75 μM dTAT-HA2, and incubated in RPMI 1640 supplied with 1% FBS and 50 μM 2-mercaptoethanol in a 37° C. incubator for 40 min. […] CD45.2 expression level was measured by flow cytometry from Day 1 to Day 5. […] The stability of TAT-4×Myc NLS-Cas9 was evaluated in the cells by measuring normalized Mean Fluorescence Intensity (MFI) of GFP.

[3] = test system: EL4 mCherry reporter cell line; experiment: EL4 mCherry reporter gene editing, loss of mCherry by flow cytometry; conditions: 5 μM TAT-4×Myc NLS-Cas9, 75 μM dTAT-HA2, 30 min, no FBS
[4] = test system: PD-1; conditions: mouse, in vivo
[5] = test system: 8.7 kb DNA fragment; experiment: in vitro DNA cleavage assay; assay type: biochemical; conditions: Cas9 RNP with sgRNA, 37° C.
Method: Cas9 RNPs were assembled by incubating purified spCas9 or TAT-4×Myc NLS-Cas9 with sgRNA targeting a 8.7 kb DNA fragment, and incubated with the DNA fragment for 1, 5, 10, and 15 min at 37° C. The reaction was stopped and the DNA products were separated on a 0.8% agarose gel. Uncut band (˜8.7 kb) and two cleaved bands (˜2.7 kb and 6 kb) are shown on the gel.
TAT-4×Myc NLS-Cas9 expression construct was created by replacing the 4×SV40 NLS (PKKKRKV (SEQ ID NO: 1423)) at the N-terminus of Cas9 (Staahl et al., (2017) Nat Biotechnol 35, 431-434) with 4×Myc NLS ([…] (SEQ ID NO: 1)) with linker -G-G-S- between Myc NLS. The sequence of the TAT cell penetrating peptide ([…] (SEQ ID NO: 2)), derived from the trans-activating transcriptional activator (Tat) from HIV-1 (Frankel and Pabo, 1988; Green and Loewenstein, 1988), was added to the N-terminus, and TAT-4×Myc NLS-Cas9 was cloned into a bacterial recombinant protein expression vector (Gootenberg et al., 2017) with a Twin-Strep and SUMO tag (FIG. 1A). Next, TAT-4×Myc NLS-Cas9 protein was purified by Strep-Tactin affinity chromatography followed by on-column SUMO protease digestion, ion exchange chromatography (IEC), and size exclusion chromatography (SEC) (FIG. 1B) (Gootenberg et al., (2017) Science 356, 438-442).

[6] = test system: Thy1 and Ptprc genes; experiment: Cas9-PAGE with retroviral sgRNA in murine primary CD8 T cells ex vivo (flow cytometry, TIDE assay); assay type: cell-based; conditions: sgThy1_IG1 or sgNeg, various concentrations of TH, 5 μM Cas9-T6N^CPP, 30 min
Method: FIG. 12A: A schematic of the experimental workflow of evaluating the PAGE system in murine primary CD8 T cells ex vivo. Murine primary T cells were activated with anti-CD3, anti-CD28 and IL-2, followed by retroviral transduction with a sgRNA expression vector linked with mCherry fluorescent marker. […] Gene editing was evaluated at various time points by flow cytometry against indicated gene products or via direct sanger sequencing of the targeted genomic regions. […] Cells were transduced with either sgThy1_IG1 or sgNeg, followed by 30 min incubation with various concentrations of TH and 5 μM Cas9-T6N^CPP. Flow cytometry analysis was performed at the indicated days post-treatment. […] FIG. 12C: Mean Fluorescent Intensity (MFI) quantification of the flow cytometry analysis at 4 days post-treatment in FIG. 12B (left panel). […] FIG. 12E: Quantification of live cell recovery of CD8 T cells treated with an increased concentration of TH. […] Genomic DNA was isolated at day 6 post-treatment of PAGE, sanger sequenced, and followed by quantification via an online TIDE analysis tool. sgThy1_IG1, sgThy1_IG2, sgThy1_IG3, sgRNAs targeting the Immunoglobulin domain of Thy1 gene; sgPtprc_CAT1 and sgPtprc_TM1, sgRNAs targeting either the catalytic domain or transmembrane domain of Ptprc gene; sgNeg, an sgRNA targeting Ano9 gene was used as a negative control here. […]

“TAT-4×NLS^MYC-Cas9-2×NLS^SV40-sfGFP [TAT-4×Myc NLS-Cas9]” was tested, and the “percentage of CD90.2 knockdown cells, maximum” value ([1]; CD90.2 sgRNA_2, 5 μM TAT-4×Myc NLS-Cas9, 75 μM dTAT-HA2, Day 3) was ~90%, the “percentage of CD90.2 knockdown cells, maximum” value ([1]; CD90.2 sgRNA_3, 5 μM TAT-4×Myc NLS-Cas9, 75 μM dTAT-HA2, Day 3) was ~70% and the “percentage of CD45.2 knockdown cells, maximum” value [2] was ~60%. For the same substance, the “percentage of mCherry^− cells” value [3] was 92.9%, the PD-1 expression [4] was ~20% and the “percentage of sgRNA^+P14 T cell population and total number of sgRNA^+P14 T cells” value [4] was “increased”. For the same substance, the DNA cleavage [5] was “efficiently cleaved DNA”.

In the case of dTAT-HA2 [TH], the “Cas9-T6N^CPP gene editing in murine primary CD8 T cells” value [6] is reported as “promoted Cas9-T6N^CPP gene editing”.
